Read-outs that look alike come from different tables or passages of the source.

This is an account of results in patent US20220125051A1, “PRE-HARVEST DESICCATION METHOD” (SYNGENTA CROP PROTECTION AG, priority 2019, published 2022).

Holding throughout (test): Post-emergence efficacy, Method A
Common to all, as to assay type: in vivo

One assay has as its system Setaria faberi (SETFA). The settings on record: Setaria faberi, post-emergence, 312 h, evaluated after 13 days. As for the experimental part: (§1) Seeds of a variety of test species were sown in standard soil in pots. After cultivation for 14 days (post-emergence) under controlled conditions in a glasshouse (at 24/16° C., day/night; 14 hours light; 65% humidity), the plants were sprayed with an aqueous spray solution derived from the dissolution of the technical active ingredient formula (I) in a small amount of acetone and a special solvent and emulsifier mixture referred to as IF50 (11.12% Emulsogen EL360 TM+44.44% N-methylpyrrolidone+44.44% Dowanol DPM glycol ether), to create a 50 g/I solution which was then diluted to required concentration using 0.25% or 1% Empicol ESC70 (Sodium lauryl ether sulphate)+1% ammonium sulphate as diluent. The test plants were then grown in a glasshouse under controlled conditions (at 24/16° C., day/night; 14 hours light; 65% humidity) and watered twice daily. After 13 days the test was evaluated (100=total damage to plant; 0=no damage to plant).
(§2) Ipomoea hederacea (IPOHE), Euphorbia heterophylla (EPHHL), Chenopodium album (CHEAL), Amaranthus palmeri (AMAPA), Lolium perenne (LOLPE), Digitaria sanguinalis (DIGSA), Eleusine indica (ELEIN), Echinochloa crus-galli (ECHCG), Setaria faberi (SETFA)

Assay [1] concerns Euphorbia heterophylla (EPHHL). The note with it: Euphorbia heterophylla, post-emergence, 312 h; Application rate 500 g/Ha; evaluated after 13 days; 100=total damage to plant, 0=no damage to plant; read-out: Control of weed species after post-emergence application, EPHHL. The method, then:
as §1, §2

Assay [2] relates to Ipomoea hederacea (IPOHE). The settings on record: Ipomoea hederacea, post-emergence, 312 h, evaluated after 13 days. As for the experimental part: as §1, §2
The subject of assay [3] is Chenopodium album (CHEAL). The settings on record: Chenopodium album, post-emergence, 312 h, evaluated after 13 days. The method, then: as §1, §2
Assay [4] has as its system Echinochloa crus-galli (ECHCG). The note with it: Echinochloa crus-galli, post-emergence, 312 h, evaluated after 13 days. As for the experimental part: as §1, §2
The subject of a further assay is Eleusine indica (ELEIN). The settings on record: Eleusine indica, post-emergence, 312 h, evaluated after 13 days. The method, then:
as §1, §2

In assay [5] the test system is Digitaria sanguinalis (DIGSA). The settings on record: Digitaria sanguinalis, post-emergence, 312 h, evaluated after 13 days. The method, then:
as §1, §2

For a further assay, the system named is Lolium perenne (LOLPE). The note with it: Lolium perenne, post-emergence, 312 h, evaluated after 13 days. The method, then:
as §1, §2

In assay [6] the test system is Amaranthus palmeri (AMAPA). The note with it: Amaranthus palmeri, post-emergence, 312 h; Application Rate 500 g/Ha; evaluated after 13 days; Method A; read-out: Control of weed species after post-emergence application, AMAPA (100=total damage to plant; 0=no damage to plant). As for the experimental part: as §1, §2
Where [7] appears, read: Application rate 500 g/Ha, 100=total damage to plant, 0=no damage to plant, read-out: Control of weed species after post-emergence application, SETFA.
The mark [8] stands for this setting: Application rate 500 g/Ha, 100=total damage to plant, 0=no damage to plant, read-out: Control of weed species after post-emergence application, IPOHE.
Setting [9] is: Application rate 500 g/Ha, 100=total damage to plant, 0=no damage to plant, read-out: Control of weed species after post-emergence application, CHEAL.
The mark [10] stands for this setting: Application rate 500 g/Ha, 100=total damage to plant, 0=no damage to plant, read-out: Control of weed species after post-emergence application, ECHCG.
[11] abbreviates: Application rate 500 g/Ha, 100=total damage to plant, 0=no damage to plant, read-out: Control of weed species after post-emergence application, ELEIN.
[12] abbreviates: Application rate 500 g/Ha, 100=total damage to plant, 0=no damage to plant, read-out: Control of weed species after post-emergence application, DIGSA.
The mark [13] stands for this setting: Application rate 500 g/Ha, 100=total damage to plant, 0=no damage to plant, read-out: Control of weed species after post-emergence application, LOLPE.
Setting [14] is: Application Rate 500 g/Ha, Method A, read-out: Control of weed species after post-emergence application, SETFA (100=total damage to plant; 0=no damage to plant).
[15] abbreviates: Application Rate 500 g/Ha, Method A, read-out: Control of weed species after post-emergence application, IPOHE (100=total damage to plant; 0=no damage to plant).
The mark [16] stands for this setting: Application Rate 500 g/Ha, Method A, read-out: Control of weed species after post-emergence application, CHEAL (100=total damage to plant; 0=no damage to plant).
The mark [17] stands for this setting: Application Rate 500 g/Ha, Method A, read-out: Control of weed species after post-emergence application, ECHCG (100=total damage to plant; 0=no damage to plant).
Setting [18] is: Application Rate 500 g/Ha, Method A, read-out: Control of weed species after post-emergence application, ELEIN (100=total damage to plant; 0=no damage to plant).
The mark [19] stands for this setting: Application Rate 500 g/Ha, Method A, read-out: Control of weed species after post-emergence application, DIGSA (100=total damage to plant; 0=no damage to plant).
Where [20] appears, read: Application Rate 500 g/Ha, Method A, read-out: Control of weed species after post-emergence application, LOLPE (100=total damage to plant; 0=no damage to plant).

As for `CS(=O)(=O)c1cnc(-c2cc[n+](CCS(=O)(=O)[O-])nc2)nc1` [Compound A15], the pest or weed control at 500 g/ha with Setaria faberi (SETFA) (setting [7]) was 50%; in assay [1], 20%; in [2] (setting [8]), 10%; in assay [3] (setting [9]), 90%; in [4] (setting [10]) it was 40%; in the assay on Eleusine indica (ELEIN) (setting [11]), 80%. In addition, the pest or weed control at 500 g/ha in assay [5] (setting [12]) worked out at 60%; in the assay on Lolium perenne (LOLPE) (setting [13]), 10%.

On to `CN(C)c1cnc(-c2cc[n+](CCS(=O)(=O)[O-])nc2)nc1` [Compound A18], for which the pest or weed control at 500 g/ha was determined as 40% in the assay on Setaria faberi (SETFA) (setting [7]); 10% in assay [1]; 10% in [2] (setting [8]); 0% in assay [3] (setting [9]); 30% in assay [4] (setting [10]); 60% in the assay on Eleusine indica (ELEIN) (setting [11]). Moreover, the pest or weed control at 500 g/ha amounted to 50% in assay [5] (setting [12]) and 10% in the assay with Lolium perenne (LOLPE) (setting [13]).

Consider `O=S(=O)([O-])CC[n+]1ccc(-c2nccc(C(F)(F)F)n2)cn1` [Compound A23], for which the pest or weed control at 500 g/ha came to 100% in the assay on Setaria faberi (SETFA) (setting [7]); 90% in [1]; 60% in assay [2] (setting [8]); 80% in assay [3] (setting [9]); 70% in [4] (setting [10]); 100% with Eleusine indica (ELEIN) (setting [11]). Moreover, the pest or weed control at 500 g/ha turned out to be 80% in [5] (setting [12]) and 70% in the assay on Lolium perenne (LOLPE) (setting [13]).

Take `COc1cc(OC)nc(-c2cc[n+](CCS(=O)(=O)[O-])nc2)n1` [Compound A32]: the pest or weed control at 500 g/ha in the assay on Setaria faberi (SETFA) (setting [7]) stood at 80%; in [1] it was 70%; in assay [2] (setting [8]) it was 40%; in assay [3] (setting [9]), 70%; in [4] (setting [10]) it was 70%; with Eleusine indica (ELEIN) (setting [11]), 100%. In addition, the pest or weed control at 500 g/ha in assay [5] (setting [12]) was 90%; in the assay on Lolium perenne (LOLPE) (setting [13]), 30%.

Regarding `O=C([O-])CC[n+]1ccc(-c2ncc(Cl)cn2)cn1` [Compound A43], the pest or weed control at 500 g/ha stood at 100% with Setaria faberi (SETFA) (setting [7]); 80% in assay [1]; 30% in assay [2] (setting [8]); 90% in assay [3] (setting [9]); 70% in [4] (setting [10]); 100% in the assay on Eleusine indica (ELEIN) (setting [11]). Moreover, the pest or weed control at 500 g/ha in assay [5] (setting [12]) was 90%; in the assay with Lolium perenne (LOLPE) (setting [13]) it was 20%.

Turning to `CN(C)c1ccnc(-c2cc[n+](CCC(=O)[O-])nc2)n1` [Compound A45], the pest or weed control at 500 g/ha in the assay with Setaria faberi (SETFA) (setting [7]) came to 100%; in assay [1], 50%; in [2] (setting [8]), 20%; in assay [3] (setting [9]) it was 60%; in assay [4] (setting [10]), 90%; in the assay with Eleusine indica (ELEIN) (setting [11]) it was 80%. The pest or weed control at 500 g/ha turned out to be 80% in assay [5] (setting [12]) and 30% in the assay with Lolium perenne (LOLPE) (setting [13]).

Turning to `Cc1cc(C)nc(-c2cc[n+](CCS(=O)(=O)[O-])nc2)n1` [Compound A48], the pest or weed control at 500 g/ha is 100% in the assay with Setaria faberi (SETFA) (setting [7]); 90% in assay [1]; 20% in [2] (setting [8]); 100% in [3] (setting [9]); 70% in [4] (setting [10]); 100% in the assay on Eleusine indica (ELEIN) (setting [11]). The pest or weed control at 500 g/ha in assay [5] (setting [12]) worked out at 90%; in the assay with Lolium perenne (LOLPE) (setting [13]), 70%.

For the compound `O=C([O-])CC[n+]1ccc(-c2ncc(C3CC3)cn2)cn1` [Compound A51], the pest or weed control at 500 g/ha with Setaria faberi (SETFA) (setting [7]) is 70%; in assay [1], 30%; in [2] (setting [8]), 20%; in [3] (setting [9]), 70%; in [4] (setting [10]), 60%; in the assay on Eleusine indica (ELEIN) (setting [11]), 90%. Also, the pest or weed control at 500 g/ha was found to be 90% in [5] (setting [12]) and 60% with Lolium perenne (LOLPE) (setting [13]).

`O=S(=O)([O-])CCC[n+]1ccc(-c2ccc(O)nn2)cn1` [Compound A52]: the pest or weed control at 500 g/ha with Setaria faberi (SETFA) (setting [7]) is 70%; in assay [1], 60%; in assay [2] (setting [8]), 20%; in assay [3] (setting [9]) it was 60%; in [4] (setting [10]), 60%; with Eleusine indica (ELEIN) (setting [11]), 70%. Besides, the pest or weed control at 500 g/ha in assay [5] (setting [12]) turned out to be 70%; with Lolium perenne (LOLPE) (setting [13]) it was 10%.

As for `O=S(=O)([O-])CCC[n+]1ccc(-c2ccnc(Cl)n2)cn1` [Compound A53], the pest or weed control at 500 g/ha was found to be 80% with Setaria faberi (SETFA) (setting [7]); 80% in assay [1]; 70% in assay [2] (setting [8]); 100% in assay [3] (setting [9]); 70% in assay [4] (setting [10]); 70% in the assay with Eleusine indica (ELEIN) (setting [11]). Further, the results for the pest or weed control at 500 g/ha (in [5] (setting [12]); with Lolium perenne (LOLPE) (setting [13])) were 80% and 40%, respectively.

Regarding `Cc1cc(-c2cc[n+](CCS(=O)(=O)[O-])nc2)nc(C)n1` [Compound A231], the pest or weed control at 500 g/ha worked out at 60% with Setaria faberi (SETFA) (setting [14]); 60% in assay [2] (setting [15]); 90% in assay [3] (setting [16]); 50% in assay [4] (setting [17]); 60% in the assay on Eleusine indica (ELEIN) (setting [18]); 80% in assay [5] (setting [19]). The pest or weed control at 500 g/ha worked out at 60% in the assay on Lolium perenne (LOLPE) (setting [20]) and 100% in [6].

`CCOP(=O)(O)CCC[n+]1ccc(-c2ncccn2)cn1` [Compound A232]: the pest or weed control at 500 g/ha in the assay on Setaria faberi (SETFA) (setting [14]) stood at 80%; in assay [2] (setting [15]), 0%; in [3] (setting [16]), 90%; in assay [4] (setting [17]) it was 100%; with Eleusine indica (ELEIN) (setting [18]), 50%; in [5] (setting [19]), 90%. Besides, the pest or weed control at 500 g/ha with Lolium perenne (LOLPE) (setting [20]) stood at 20%; in assay [6] it was 100%.

Regarding `O=P(O)(O)CCC[n+]1ccc(-c2ncccn2)cn1` [Compound A233], the pest or weed control at 500 g/ha in the assay with Setaria faberi (SETFA) (setting [14]) amounted to 70%; in [2] (setting [15]), 70%; in [3] (setting [16]), 100%; in assay [4] (setting [17]), 60%; in the assay with Eleusine indica (ELEIN) (setting [18]) it was 50%; in assay [5] (setting [19]), 60%. In addition, the results for the pest or weed control at 500 g/ha (in the assay with Lolium perenne (LOLPE) (setting [20]); in assay [6]) were 20% and 100%, respectively.
